Bounds are passed on as bounds.

The term IC50 denotes the concentration needed to halve the response being measured.

HPK1, sequence (Q92918 whole entry): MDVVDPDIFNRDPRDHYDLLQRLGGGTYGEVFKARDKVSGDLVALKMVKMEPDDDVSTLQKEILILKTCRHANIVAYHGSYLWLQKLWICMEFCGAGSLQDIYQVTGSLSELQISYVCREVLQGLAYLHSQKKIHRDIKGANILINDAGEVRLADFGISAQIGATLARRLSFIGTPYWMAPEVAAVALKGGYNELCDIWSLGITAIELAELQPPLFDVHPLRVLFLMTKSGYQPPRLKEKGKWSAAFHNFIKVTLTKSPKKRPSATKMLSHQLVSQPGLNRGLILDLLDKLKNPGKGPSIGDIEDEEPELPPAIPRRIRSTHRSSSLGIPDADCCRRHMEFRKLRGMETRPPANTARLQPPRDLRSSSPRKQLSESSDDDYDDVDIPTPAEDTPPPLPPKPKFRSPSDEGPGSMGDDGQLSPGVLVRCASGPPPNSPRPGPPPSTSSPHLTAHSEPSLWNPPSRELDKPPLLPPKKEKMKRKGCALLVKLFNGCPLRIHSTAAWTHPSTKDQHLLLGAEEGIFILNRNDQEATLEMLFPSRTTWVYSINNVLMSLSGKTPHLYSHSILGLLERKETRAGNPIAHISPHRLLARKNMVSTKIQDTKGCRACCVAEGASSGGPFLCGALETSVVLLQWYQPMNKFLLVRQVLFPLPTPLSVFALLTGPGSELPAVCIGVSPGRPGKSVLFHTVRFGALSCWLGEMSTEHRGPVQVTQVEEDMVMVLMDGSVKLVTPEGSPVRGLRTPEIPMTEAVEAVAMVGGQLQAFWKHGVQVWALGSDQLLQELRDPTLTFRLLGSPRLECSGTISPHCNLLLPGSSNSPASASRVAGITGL

The target in the assay is HPK1 (Homo sapiens (Human), UniProt Q92918). The assay can be described thus: HPK1 biochemical enzyme assay (microfluidic mobility shift assay). The following applies: 1.5 nM HPK1, ATP 1 mM final, 30 min preincubation, 60 min at RT, Caliper EZ Reader; read-out: HPK1 1000UMATP caliper IC50. The procedure, abridged:
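Mobility shift readout of HPK1 activity after a 60 min RT reaction with 1 mM ATP, 1 μM substrate and 5 mM MgCl2. Enzyme/substrate mix was first exposed to compounds for 30 min, using ten-point curves topping at 3 μM final.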
Regarding `CN1CCN(c2ccc(Nc3cnc(-c4cn(C)c5ncccc45)c4c3C(=O)NC4)nc2)CC1` [I-14, 7-[[5-(4-methylpiperazin-1-yl)-2-pyridyl]amino]-4-(1-methylpyrrolo [2,3-b]pyridin-3-yl)-2,3-dihydropyrrolo [3,4-c]pyridin-1-one], the IC50 was above 1000 nM. Take `CN1CCN(c2ccc(Nc3ccc(-c4cn(C)c5ncccc45)c4c3C(=O)NC4)nc2)CC1` [I-22, 7-[[5-(4-methylpiperazin-1-yl)-2-pyridyl]amino]-4-(1-methylpyrrolo [2,3-b]pyridin-3-yl)-isoindolin-1-one]: the half-maximal inhibitory concentration (IC50) fell in the range of 100 to 1000 nM. Turning to `Cn1ccc2c(-c3ncc(Nc4cccc(N5CC[C@H](N6CCCC6)C5)n4)c4c3CNC4=O)ccnc21` [I-443, (S)-7-((6-([1,3-bipynolidin]-1′-yl)pyridin-2-yl)amino)-4-(1-methyl-1H-pyrrolo[2,3-b]pyridin-4-yl)-2,3-dihydro-1H-pyrrolo[3,4-c]pyridin-1-one], the IC50 is below 100 nM. The figure for `CN1CCN(c2ccc(Nc3cnc(-c4c[nH]c5ncccc45)c4c3C(=O)NC4)nc2)CC1` [I-6, 7-((5-(4-Methylpiperazin-1-yl)pyridin-2-yl)amino)-4-(1H-pyrrolo[2,3-b]pyridin-3-yl)-2,3-dihydro-1H-pyrrolo[3,4-c]pyridin-1-one] is below 100 nM; for `CN(C)Cc1nc(Nc2ccc(-c3cnc4cc(F)ccn34)c3c2C(=O)NC3)ccc1O[C@H]1CCOC1` [I-544, 7-[[6-[(dimethylamino)-methyl]-5-[(3S)-tetrahydrofuran-3-yl]oxy-2-pyridyl]amino]-4-(7-fluoroimidazo [1,2-a]pyridin-3-yl)isoindolin-1-one] it is below 100 nM. For the compound `COCCNc1ccn2c(-c3ccc(Nc4ccc(N5CCOCC5)cn4)c4c3CNC4=O)cnc2c1` [I-206, 4-[7-(2-methoxyethyl-amino)imidazo [1,2-a]pyridin-3-yl]-7-[(5-morpholino-2-pyridyl)amino] isoindolin-1-one], the half-inhibitory concentration (IC50) is 100 to 1000 nM. Next, `Cn1ccc2c(-c3ncc(Nc4ccc(N5CCC[C@H](O)C5)cn4)c4c3CNC4=O)ccnc21` [I-179, 7-[[5-[(3S)-3-hydroxy-1-piperidyl]-2-pyridyl]amino]-4-(1-methylpyrrolo [2,3-b]pyridin-4-yl)-2,3-dihydropyrrolo [3,4-c]pyridin-1-one]: below 100 nM. Turning to `CNC(C)(C)[C@@H]1CN(c2ccc(Nc3ccc(-c4cnc5cc(F)ccn45)c4c3C(=O)NC4)nc2)CCO1` (single isomer, unassigned) [I-675], the IC50 is below 100 nM.

Take `O=C1NCc2c(-c3cnc4n3CCCCC4)ccc(Nc3ccc(N4CCC(O)CC4)cn3)c21` [I-288, 7-((5-(4-hydroxy-piperidin-1-yl)pyridin-2-yl)amino)-4-(6,7,8,9-tetrahydro-5H-imidazo[1,2-a]azepin-3-yl)isoindolin-1-one]: the IC50 was in the range of 100 to 1000 nM. The figure for `CC(C)(O)C1CCN(c2ccc(Nc3ccc(-c4cnc5cc(F)ccn45)c4c3C(=O)NC4)nc2)CC1` [I-224] is below 100 nM; for `CC(C)(O)[C@H]1CCCN(c2ccc(Nc3cnc(-c4cnc5c(F)cccn45)c4c3C(=O)NC4)nc2)C1` [I-243, 4-(8-fluoroimidazo [1,2-a]pyridin-3-yl)-7-[[5-[(3S)-3-(1-hydroxy-1-methyl-ethyl)-1-piperidyl]-2-pyridyl]-amino]-2,3-dihydropyrrolo [3,4-c]pyridin-1-one] it is below 100 nM. The figure for “4-(6- methylpyrazol o[1,5-a]pyridin-3- yl)-7-[[5- (morpholino- methyl)-2- pyridyl]amino] isoindolin-1-one [I-469]” is below 100 nM.

Take `O=C1NCc2c(-c3cnc4cc(F)ccn34)ccc(Nc3ccc(N4CCC[C@H](N5CCOCC5)C4)cn3)c21` [I-501, (S)-4-(7-fluoroimidazo [1,2-a]pyridin-3-yl)-7-((5-(3-morpholinopip-eridin-1-yl)pyridin-2-yl)amino)isoin-dolin-1-one]: the IC50 was below 100 nM.

Consider `O=C1NCc2c(-c3cnc4cc(F)ccn34)ccc(Nc3ccc([C@@H]4CCOC4)c(CN4CCC[C@H]4CO)n3)c21` [I-828, 4-(7-fluoroimidazo [1,2-a]pyridin-3-yl)-7-((6-(((S)-2-(hydroxymeth-yl)pyrrolidin-1-yl)methyl)-5-((S)-THF-3-yl)pyridin-2-yl)amino)isoin-dolin-1-one], for which the IC50 is below 100 nM. Turning to `Cn1ccc2c(-c3ccc(Nc4ccc(N5CCNCC5)cn4)c4c3CNC4=O)ncnc21` [I-123, 4-(7-methylpyrrolo [2,3-d]pyrimidin-4-yl)-7-[(5-piperazin-1-yl-2-pyridyl)amino] isoindolin-1-one], the concentration for half-maximal inhibition (IC50) was below 100 nM. The figure for `C[C@H](c1nc(Nc2ccc(-c3cnc4cc(F)ccn34)c3c2C(=O)NC3)ccc1[C@H]1CCOC1)N(C)C` [I-817, 7-((6-((R)-1-(dimethylami-no)ethyl)-5-((R)-THF-3-yl)pyridin-2-yl)amino)-4-(7-fluoroimidazo [1,2-a]pyridin-3-yl)isoindolin-1-one] is below 100 nM; for `O=C1NCc2c(-c3cnc4c(F)cccn34)ccc(Nc3ccc(N4CCNCC4)cn3)c21` [I-88, 4-(8-fluoroimidazo [1,2-a]pyridin-3-yl)-7-[(5-piperazin-1-yl-2-pyridyl)amino] isoindolin-1-one] it is below 100 nM; for `CC1COc2c(-c3ccc(Nc4ccc(N5CCN(C)CC5)cn4)c4c3CNC4=O)cnn2C1` (stereo in doubt) [I-259, (R)-4-(6-methyl-6,7-dihydro-5H-pyrazolo[5,1-b][1,3]oxazin-3-yl)-7-((5-(4-methylpiperazin-1-yl)pyridin-2-yl)amino)isoin-dolin-1-one] it is 100 to 1000 nM.

Turning to `CO[C@@]1(CN(C)C)CCCN(c2ccc(Nc3ccc(-c4cnc5cc(F)ccn45)c4c3C(=O)NC4)nc2)C1` [I-611, (R)-7-((5-(3-((dimethylamino)-methyl)-3-methoxy-piperidin-1-yl)pyridin-2-yl)amino)-4-(7-fluoroimidazo [1,2-a]pyridin-3-yl)isoindolin-1-one], the concentration for half-maximal inhibition (IC50) is below 100 nM. Next, `Cn1ccc2c(-c3ccc(Nc4ccc(N5CCC(O)CC5)cn4)c4c3CNC4=O)ccnc21` [I-75, 7-[[5-(4-hydroxy-1-piperidyl)-2-pyridyl]amino]-4-(1-methylpyrrolo [2,3-b]pyridin-4-yl)isoindolin-1-one]: below 100 nM; `CN1CCN(Cc2ccc(Nc3ccc(-c4cnc5c(F)c(C(F)F)ccn45)c4c3C(=O)NC4)nc2)C(C)(C)C1` [I-672, 4-(7-(difluorometh-yl)-8-fluoroimidazo [1,2-a]pyridin-3-yl)-7-((5-((2.2.4-trimethylpiper-azin-1-yl)methyl)pyri-din-2-yl)amino)isoin-dolin-1-one]: below 100 nM; `N#Cc1ccn2c(-c3ncc(Nc4ccc(N5CCOCC5)cn4)c4c3CNC4=O)cnc2c1` [I-189, 3-[7-[(5-morpholino-2-pyridyl)-amino]-1-oxo-2,3-dihydropyrrolo [3,4-c]pyridin-4-yl]imidazo[1,2-a]pyridine-7-carbonitrile]: 100 to 1000 nM. Next, `CN(C)Cc1nc(Nc2ccc(-c3cnc4cc(F)ccn34)c3c2C(=O)NC3)ccc1[C@H]1CCCO1` [I-554, (R)-7-((6-((dimethylamino)-methyl)-5-(tetrahydrofuran-2-yl)pyridin-2-yl)amino)-4-(7-fluoroimidazo [1,2-a]pyridin-3-yl)isoindolin-1-one]: below 100 nM. Consider `CCNC(=O)c1ccc(Nc2ccc(-c3cnc4cc(F)ccn34)c3c2C(=O)NC3)nc1CN(C)C` [I-791, 2-((dimethylamino)-methyl)-N-ethyl-6-((7-(7-fluoroimidazo [1,2-a]pyridin-3-yl)-3-oxoisoindolin-4-yl)amino)nico-tinamide], for which the 50% inhibitory concentration (IC50) was below 100 nM. The figure for “(R)-7-((6- ((dimethylamino)- methyl)-5-(2- (methoxymeth- yl)morpholino )pyridin-2- yl)amino)-4-(7- fluoroimidazo [1,2-a]pyridin- 3-yl)isoindolin- 1-one [I-711]” is below 100 nM; for `C[C@H](c1ccc(Nc2ccc(-c3cnc4cc(F)ccn34)c3c2C(=O)NC3)nc1)N1CCC[C@H](O)C1` (stereo in doubt) [I-514, 4-(7-fluoroimidazo [1,2-a]pyridin-3-yl)-7-((5-((R)-1-((S)-3-hydroxypiperidin-1-yl)ethyl)pyridin-2-yl)amino)isoin-dolin-1-one] it is below 100 nM; for `O=C1NCc2c(-c3cnc4cc(Cl)ccn34)ccc(Nc3ccc(N4CCOCC(O)C4)cn3)c21` (stereo in doubt) [I-595, (S)-4-(7-chloroimidazo [1,2-a]pyridin-3-yl)-7-((5-(6-hydroxy-1.4-oxazepan-4-yl)pyridin-2-yl)amino)isoin-dolin-1-one] it is below 100 nM. Next, `O=C1NCc2c(-c3cnc4c(F)cccn34)ncc(Nc3ccc(N4CC[C@H](F)[C@H](O)C4)cn3)c21` [I-658, 7-((5-((3R,4S]-4-fluoro-3-hydroxy-piperidin-1-yl)pyridin-2-yl)amino)-4-(8-fluoroimidazo [1,2-a]pyridin-3-yl)-2,3-dihydro-1H-pyrrolo[3,4-c]pyridin-1-one]: below 100 nM; `CN(C)CC1(O)CCN(c2ccc(Nc3ccc(-c4cnc5cc(F)ccn45)c4c3C(=O)NC4)nc2)CC1` [I-366, 7-((5-(4-((dimethylamino)-methyl)-4-hydroxypiperidin-1-yl)pyridin-2-yl)amino)-4-(7-fluoroimidazo [1,2-a]pyridin-3-yl)isoindolin-1-one]: below 100 nM.

As to `CC(C)(O)[C@H]1CCCN(c2ccc(Nc3cnc(-c4cnc5ccccn45)c4c3C(=O)NC4)nc2)C1` [I-210, 7-[[5-[(3S)-3-(1-hydroxy-1-methyl-ethyl)-1-piperipyl]-2-pyridyl]-amino]-4-imidazo[1,2-a]pyridin-3-yl-2.3-dihydropyrrolo [3,4-c]pyridin-1-one], the IC50 was below 100 nM. Next, `CN1CCN(c2ccc(Nc3ccc(-c4ccnc5c4ccn5CC(N)=O)c4c3C(=O)NC4)nc2)CC1` [I-269, 2-(4-(7-((5-(4-methylpiperazin-1-yl)pyridin-2-yl)amino)-1-oxoisoindolin-4-yl)-lH-pyrrolo[2.3-b]pyridin-1-yl)acctamide]: below 100 nM.

The values above are taken from US11021481B2, “Substituted isoindolin-1-ones and 2,3-dihydro-1h-pyrrolo[3,4-c]pyridin-1-ones as HPK1 antagonists” (Nimbus Saturn, Inc., priority 2019, dated 2021).
